Results as given in patent US9795649B2, “Sesquiterpenoid-based compounds, extracts of Cyperus rotundus comprising the same, and use thereof” (RESEARCH & BUSINESS FOUNDATION SUNGKYUNKWAN UNIVERSITY, priority 2013, dated 2017).
“Also recorded” adds a separate entry of the source.

Experiments:
Format in all cases: cell-based
MCF-7 bus cells [1] = test: E-screen assay with co-treatment of high or low concentration of estradiol (SERM function); conditions: for change in estrogenic activity by co-treatment of high concentration of estrogen: estradiol 10^−7M, FIGS. 6A and 6B; for change in estrogenic activity by co-treatment of low concentration of estrogen: estradiol 10^−13M, FIGS. 7A and 7B
Description: (§1) In detail, MCF-7-bus cells were cultured in a 5% FBS DMEM medium and seeded in a 48-well plate at a density of 5×10^3 cells/well. The cells were cultured in a CO2 incubator at 37° C. for 48 hours, and then washed with a phenol red-free medium twice. The test materials were diluted with 5% CD-FBS DMEM at different concentrations, and then cells were treated therewith. The concentration of the solvent was in principle adjusted to 0.1%. After culturing for 144 hours (6 days), cells were fixed to the plate with TCA (Trichloroacetic acid) solution. The cells thus fixed were stained with SRB (Sulforhodamin B) dye, and the SRB dye remaining in the plate was removed by washing with acetic acid. The bound SRB dye was eluted from the cells with tris-base solution, and absorbance at 490 nm was measured to calculate the amount of SRB dye. Finally, estrogenic actions of the test materials were confirmed.
In detail, to examine whether the test materials function as an antagonist of estrogen at excessively high level of estrogen in the body, the test materials were mixed with high concentration of estradiol (10^−7M) and MCF-7 bus cells were treated with the mixture. To examine whether the test materials function as an agonist of estrogen at estrogen deficiency in the body, the test materials were mixed with a low concentration of estradiol (10^−13M) and MCF-7 bus cells were treated with the mixture. Then, e-screen assay was performed.

MCF-7-bus cells = test: E-screen assay for estrogenic activity; conditions: isolated compounds; FIGS. 4A and 4B
Description: E-screen assay is a method of measuring estrogenic action of a substance, i.e., a method of utilizing the growth effect of MCF-7-bus, a breast cancer cell line with endogenous estrogen receptors (ER) expressed therein, which is stimulated by an estrogenic substance. In the present invention, estrogenic activities of the methanol extract and the organic solvent fraction thereof, the ethanol extract and the column fraction thereof were examined by E-screen assay.
as §1

MCF-7 bus cells [2] = test: E-screen assay with co-treatment of tamoxifen (estrogen receptor antagonist); conditions: tamoxifen 10^−6M; FIGS. 5A and 5B
Description: as §1
In detail, Tamoxifen is a representative estrogen receptor antagonist, and in this experiment, in order to examine whether the test materials show the estrogen receptor-mediated estrogenic actions, the test materials were mixed with tamoxifen (10^−6M) and MCF-7 bus cells were treated with the mixture to perform e-screen assay, and the results are shown in FIG. 5.

RBL-2H3 cell line = test: β-Hexosaminidase release assay for anti-allergic activity; conditions: Rattus norvegicus, 50 μg/ml, Mean ± SD, read-out: Degranulation-inhibitory activity (%, Mean ± SD)
Description: β-Hexosaminidase release assay is an experiment for examining anti-allergic activity by activating the RBL-2H3 cell line with an activating factor, treating the activated cells with an antigen, and then measuring the amount of released β-hexosaminidase to examine inhibitory effect on degranulation, and this assay was performed as follows.
In detail, the RBL-2H3 cell line was cultured in minimum essential media (hereinafter, referred to as EMEM) containing Eagle's salt supplemented with 15% fetal bovine serum and L-glutamine at 37° C. in a 5% CO2 incubator. Adherent cells were suspended by Trypsin-EDTA, and separated, recovered for use in the experiment. The RBL-2H3 cell line was activated with an activating factor (Dinitrophenol-conjugated human serum albumin, (DNP-HSA)-specific IgE), and then the activated cells were treated with 200 ng/mL of an antigen (DNP-HSA), and 0, 6.25, 12.5, 25, 50, or 100 μg/mL of the fraction of the extract of Cyperus rotundus was treated, respectively. Cells were incubated for 30 minutes. As a positive control, 50 μg/mL of ketotifen was used. Thereafter, the amount of β-hexosaminidase released to the medium was measured using a microplate spectrophotometer. Inhibition of β-hexosaminidase release means prevention of degranulation of immune cells.

| Compound | change in estrogenic activity by co-treatment of high concentration of estrogen (MCF-7 bus cells [1]) | change in estrogenic activity by co-treatment of low concentration of estrogen (MCF-7 bus cells [1]) | estrogenic activity (MCF-7-bus cells) | estrogenic activity by co-treatment with tamoxifen (MCF-7 bus cells [2]) | inhibition at 50 µg/mL (RBL-2H3 cell line) |
| --- | --- | --- | --- | --- | --- |
| C=C(C)C1CCC2(C)CCC(OC)C(C)=C2C1 (stereo not drawn) [Compound [6], 3α-methoxyeudesma-4,11-diene] | function as an estrogen inhibitor | function as an estrogen supplement | high estrogenic activity | remarkably reduced activities | 41.7 ± 5.4% |
| cyper-11-ene-3,4-dione [Compound [2]] | function as an estrogen inhibitor | function as an estrogen supplement | high estrogenic activity | remarkably reduced activities |  |
| C=C(C)[C@@H]1CC[C@@]2(C)CCC(=O)[C@@]3(C)O[C@@]23C1 [Compound [1], 4α,5α-oxidoeudesm-11-en-3-one] | function as an estrogen inhibitor | function as an estrogen supplement | excellent estrogenic activity; also recorded: high estrogenic activity | remarkably reduced activities |  |
| CN1CCC(=C2c3ccccc3CC(=O)c3sccc32)CC1 [Ketotifen, ketotifen, reference compound] |  |  |  |  | 50.5 ± 2.28% |
